Laboratory results taken from US7728039B2, “Biphenyl and Naphthyl-Phenyl Hydroxamic Acid Derivatives” (Sigma-Tau Industrie Farmaceutiche Riunite S.p.A., priority 2005, dated 2010).
Read-outs that look alike come from different tables or passages of the source.

Columns and labels:
[1] = tested on: IGROV-1/Pt (platinum-resistant ovarian carcinoma cells); assay: Sulphorodamine B cytotoxicity test on IGROV-1/Pt cells; format: cell-based; conditions: Homo sapiens, read-out: IC50 ± SD, IGROV-1/Pt
Source text: (§1) The cytotoxic effect of some biphenyl and phenylnaphthyl compounds bearing a hydroxamic acid group is reported herein. […] The chemical structures of the tested compounds of the invention and of the corresponding compounds bearing a carboxylic acid group are reported in FIG. 1. To test the effects of the compounds on cell growth, NB4 human promyelocytic leukaemia, NCI-H460 non-small cell carcinoma cells, H460/(R9A) (resistant to carboxylic acid-bearing compounds: ST1898, ST1926, ST1964), HCT-116 human colon carcinoma cells, IGROV-1 and IGROV-1/Pt (sensitive ovarian carcinoma and platinum-resistant ovarian carcinoma cells, respectively) were used. NB4 and NCI-H460 tumour cells were grown in RPMI 1640 containing 10% foetal bovine serum (GIBCO), HCT-116 tumour cells were grown in McCoy's 5A containing 10% foetal bovine serum (GIBCO), IGROV-1 and IGROV-1/Pt were grown in DMEM containing 10% foetal bovine serum (GIBCO),
(§2) Tumour cells were seeded in 96-well tissue culture plates at approximately 10% confluence and were allowed to attach and recover for at least 24 h. Varying concentrations of the drugs were then added to each well to calculate their IC50 value (the concentration which inhibits the 50% of cell survival). The plates were incubated for 24 h at 37° C. At the end of the treatment, for NB4 tumour cells in suspension, the procedure was performed as follows: medium culture was removed by centrifugation of the plates at 1600×g for 10 min and the surnatant was removed. 250 μl PBS were added, then the plates were centrifuged at 1600×g for 10 min, the surnatant was removed. 200 μl/well of medium culture RPMI 1640 containing 10% FCS were added and the plates were incubated at 37° C. for other 48 h. The plates were centrifuged again at 1600×g for 10 min, the medium culture was removed and 200 μl PBS and 50 μl of cold 80% TCA were added. The plates were incubated on ice for at least 1 h. TCA was removed, the plates were washed 3 times for immersion in distilled-water and dried on paper and at 40° C. for 5 min. Then 200 μl of 0.4% sulphorodamine B in 1% acetic acid were added. The plates were incubated at room temperature for other 30 min. Sulphorodamine B was removed, the plates were washed for immersion in 1% acetic acid for 3 times, then they were dried on paper and at 40° C. for 5 min. Then 200 μl Tris 10 mM were added, the plates were kept under stirring for 20 min. The survival cell was determined as optical density by a Multiskan spectrofluorimeter at 540 nm. For the tumour cells in adhesion (NCI-H460 and HCT-116), the procedure was as above mentioned, except that at the end of the treatment, the plates were washed by remotion of the surnatant and addition of PBS 3 times without centrifugation. Also the last day of the assay, the surnatant was removed without centrifugation.
(§3) The amount of cells killed was calculated as the percentage decrease in sulphorodamine B binding compared with control cultures. The IC50 values (the concentration which inhibits the 50% of cell survival) were calculated with the “ALLFIT” program.

[2] = tested on: NB4 human promyelocytic leukaemia; assay: Sulphorodamine B cytotoxicity test on NB4 cells; format: cell-based; conditions: Homo sapiens, NB-4
Source text: as §1, §2, §3

[3] = tested on: NCI-H460 R9A tumour cells (H460/(R9A), resistant to carboxylic acid-bearing compounds); assay: Sulphorodamine B cytotoxicity test on ST1926-resistant NCI-H460 R9A cells; format: cell-based; conditions: for overcoming of resistance on H460/R9A: H460/R9A versus sensitive NCI-H460, result in words; for IC50: Homo sapiens, Table 3, resistant NCI-H460 R9A, SRB, read-out: IC50 ± SD, NCI-H460 R9A
Source text: as §1, §2, §3
The resistant tumour cell line NCI H460 R9A was a clone selected for the resistance to ST1926 (Table 3). To obtain the resistant tumour cell line, the sensitive NCI-H460 tumour cells were treated with 2 μM ST1926 for 24 hours and maintained in drug-free medium for a recovering time of 7 days. Then, survived cells were cultured applying a continuous selective pressure of 2 μM (10×IC50) ST1926. Resistant NCI-H460 cells were subculture for 3-4 times before increasing ST1926 concentration to 4 μM (20×IC50). Survived cells were seeded in 96-well plates to isolate resistant cells clones and maintained in complete medium with 4 μM of ST1926. The tumour cell line was maintained at least for one week, before seeding for SRB cytotoxicity assay, in drug-free medium.
To evaluate the effect of the compound on survival cells, the sulphorodamine B test was used. […]

[4] = tested on: HCT-116 human colon carcinoma cells; assay: Sulphorodamine B cytotoxicity test on HCT-116 cells; format: cell-based; conditions: Homo sapiens, Table 2, SRB, read-out: IC50 ± SD, HCT-116
Source text: as §1, §2, §3

[5] = tested on: NCI-H460 non-small cell carcinoma cells; assay: Sulphorodamine B cytotoxicity test on NCI-H460 cells; format: cell-based; conditions: Homo sapiens, SRB, read-out: IC50 ± SD, NCI-H460
Procedure: The chemical structures of the tested compounds of the invention and of the corresponding compounds bearing a carboxylic acid group are reported in FIG. 1. […] NB4 and NCI-H460 tumour cells were grown in RPMI 1640 containing 10% foetal bovine serum (GIBCO), HCT-116 tumour cells were grown in McCoy's 5A containing 10% foetal bovine serum (GIBCO), IGROV-1 and IGROV-1/Pt were grown in DMEM containing 10% foetal bovine serum (GIBCO),
as §2, §3

[6] = tested on: NB4 promyelocytic leukaemia cells; assay: Differentiation of NB4 tumour cells by nitroblue tetrazolium (NBT) reduction, with or without ATRA; format: cell-based, human; conditions: 3 days, NBT-reducing activity; for AC50: Homo sapiens, 72 h, combined with suboptimal ATRA (5 nM); for Differentiation AC50: compound alone (without ATRA)
Source text: Relevant aspects of the differentiation program set in motion by ATRA in APL cells can be reproduced in primary cultures of leukemic blasts and in the derived NB4 cell line, which is a unique model for the study of the pharmacologic activity of ATRA and derivatives. Pharmacological concentrations of ATRA arrest the growth of NB4 blasts and differentiate them into cells that resemble mature neutrophils. This is followed by a slow process of apoptosis. […] In particular, the differentiation of NB4 tumour cells induced by the compounds was determined by nitroblue tetrazolium (NBT) reduction. NB4 promyelocytic leukaemia cells were seeded at a density of 150000 cells/ml in RPMI 1640 medium containing 10% FCS. To measure the cytodifferentiating effect of the molecules, tumour cells were treated with the compounds at different concentrations starting from at least 0.4 μM to 0.01 μM, whereas to measure the enhancing action of the molecules of ATRA activity, NB4 cells were treated with increasing concentrations of the molecules in the presence or absence of ATRA at a suboptimal concentration (5 nM).
Tumour cells were incubated for 3 days at 37° C. without replacing the medium culture. To measure the prodifferentiative effect, 500,000 cells were collected, centrifuged and resuspended in 1 ml of RPMI 1640 medium containing 10% FCS, 1 mg/ml of nitroblue tetrazolium (NBT) and 100 ng of PMA (4-phorbol-12-myristate-13-acetate). The tumour cells resuspended were incubated at 37° C. for 60 min. At the end of the incubation, tumour cells were centrifuged and the pellet was resuspended in 1 ml of PBS containing Triton ×100 at 10%. The samples were sonicated and the absorbance was determined at 540 nm with a spectrophotometer. Differentiation of tumor cells as AC50 (activating concentration) was evaluated as the concentration of the compound giving 50% of the maximal induction of NBT-reducing activity with or without ATRA.

[7] = tested on: IGROV-1 (sensitive ovarian carcinoma cells); assay: Sulphorodamine B cytotoxicity test on IGROV-1 cells; format: cell-based; conditions: Homo sapiens, read-out: IC50 ± SD, IGROV-1
Source text: as §1, §2, §3

[8] = Table 4, NB4 tumour cells, compound alone, read-out: IC50 (μM ± SD)

Row | SMILES | IC50 ([1]; Table 1, SRB) | IC50 ([2]; Table 1, NB4, 24 h treatment, 48 h recovery, SRB, read-out: IC50 ± SD, NB4) | IC50 [2, 8] | overcoming of resistance on H460/R9A [3] | IC50 [3] | IC50 [4] | IC50 ([5]; NCI-H460, Table 2, NCI-H460) | AC50 [6] | Differentiation AC50 [6] | IC50 ([7]; Table 1, SRB) | IC50 ([1]; Table 2, SRB) | RI (resistance index) ([3]; IC50 on resistant tumour cell line/IC50 on sensitive tumour cell line (NCI-H460 R9A / NCI-H460)) | IC50 ([5]; NCI-H460, Table 3, sensitive NCI-H460) | IC50 ([7]; Table 2, SRB)
1 | O=C(/C=C/c1ccc(-c2ccc(O)cc2)cc1)NO [ST2782, E-3-(4′-hydroxy-biphenyl-4-yl)-N-hydroxy-acrylamide] | 7.7 ± 1.6 µM | 2.3 ± 0.02 µM | 2.3 ± 0.02 µM | the same characteristic are retained | 1.8 ± 0.16 µM | 6.7 ± 0.7 µM | 6 ± 0.9 µM | 2.47 µM | no differentiation | 8.8 ± 3 µM |  |  |  | 
2 | O=C(/C=C/c1ccc(-c2ccc(O)c(C34CC5CC(CC(C5)C3)C4)c2)cc1)NO [ST2992, E-3-[3′-(1-adamantyl)-4′-hydroxy-biphenyl-4-yl]-N-hydroxy-acrylamide] |  |  | 0.68 ± 0.07 µM | completely overcame the resistance | 1.2 ± 0.1 µM | 3 ± 0.2 µM | 1.2 ± 0.03 µM | 0.19 µM | no differentiation |  | 0.55 ± 0.05 µM | 1.0 | 1.2 ± 0.03 µM | 0.77 ± 0.05 µM
